Test results taken from ChEMBL document CHEMBL4052790, “Identification of a Novel TRPM8 Agonist from Nutmeg: A Promising Cooling Compound” (ACS Med Chem Lett, 2017).
Calls of active or inactive are those of the source. No cut-off for these calls is given here.

Tests used:
[1] = target: T1, Transient receptor potential cation channel subfamily M member 8 (Homo sapiens, UniProt Q7Z2W7); experiment: Agonist activity at full length recombinant human TRPM8 expressed in HEK293 cells assessed as increase in intracellular Ca2+ level pre-incubated for 5 mins by Fluo4-AM dye-based fluorescence assay; assay type: cell-based
Target sequence in this assay (Q7Z2W7 whole entry): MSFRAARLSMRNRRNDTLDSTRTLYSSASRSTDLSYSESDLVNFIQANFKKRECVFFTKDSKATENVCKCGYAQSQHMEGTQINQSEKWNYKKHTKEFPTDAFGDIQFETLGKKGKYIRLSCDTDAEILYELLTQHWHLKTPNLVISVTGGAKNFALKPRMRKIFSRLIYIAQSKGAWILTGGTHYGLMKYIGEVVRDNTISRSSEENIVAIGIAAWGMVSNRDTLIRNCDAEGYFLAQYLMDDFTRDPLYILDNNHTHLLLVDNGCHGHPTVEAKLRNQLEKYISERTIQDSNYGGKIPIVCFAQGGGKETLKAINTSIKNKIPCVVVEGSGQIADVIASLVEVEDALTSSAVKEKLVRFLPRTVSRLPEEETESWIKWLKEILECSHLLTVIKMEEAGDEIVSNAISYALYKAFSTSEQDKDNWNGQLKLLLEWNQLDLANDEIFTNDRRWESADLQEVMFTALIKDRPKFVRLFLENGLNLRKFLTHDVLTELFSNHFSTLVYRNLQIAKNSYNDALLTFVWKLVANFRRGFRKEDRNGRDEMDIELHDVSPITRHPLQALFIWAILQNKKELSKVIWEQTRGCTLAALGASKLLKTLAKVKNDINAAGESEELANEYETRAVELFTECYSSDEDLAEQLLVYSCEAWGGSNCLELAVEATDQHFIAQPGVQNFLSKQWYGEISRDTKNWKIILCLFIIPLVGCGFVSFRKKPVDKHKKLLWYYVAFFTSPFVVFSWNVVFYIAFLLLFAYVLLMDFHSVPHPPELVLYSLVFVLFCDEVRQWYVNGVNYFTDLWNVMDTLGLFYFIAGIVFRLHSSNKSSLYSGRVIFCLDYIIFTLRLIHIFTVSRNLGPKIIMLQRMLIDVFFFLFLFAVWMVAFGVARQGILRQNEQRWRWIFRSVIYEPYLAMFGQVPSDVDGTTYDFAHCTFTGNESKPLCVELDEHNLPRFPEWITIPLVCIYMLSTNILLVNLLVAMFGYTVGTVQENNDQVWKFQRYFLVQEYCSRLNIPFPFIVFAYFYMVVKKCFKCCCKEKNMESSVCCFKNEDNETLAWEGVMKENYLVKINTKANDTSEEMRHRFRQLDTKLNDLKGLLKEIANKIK

[2] = target: Transient receptor potential cation channel subfamily A member 1 (Homo sapiens, UniProt O75762); experiment: Agonist activity at recombinant human TRPA1 expressed in HEK293 cells assessed as increase in intracellular Ca2+ level pre-incubated for 5 mins by Fluo4-AM dye-based fluorescence assay; assay type: cell-based
Homo sapiens [3] = organism: Homo sapiens; experiment: Induction of cooling effect in human at 0.02% measured immediately after washing by simple mouth washing method; assay type: functional
[4] = target: Transient receptor potential cation channel subfamily V member 1 (Homo sapiens) (UniProt Q8NER1); experiment: Agonist activity at recombinant human TRPV1 expressed in HEK293 cells assessed as increase in intracellular Ca2+ level pre-incubated for 5 mins by Fluo4-AM dye-based fluorescence assay; assay type: cell-based
[5] = target: T1, Transient receptor potential cation channel subfamily M member 8; experiment: Agonist activity at full length recombinant human TRPM8 expressed in HEK293 cells assessed as additive potentiation of 1 and 3 uM l-menthol-stimulated intracellular Ca2+ level at 0.03 uM by Fluo4-AM dye-based fluorescence assay; assay type: cell-based
Target sequence in this assay (Q7Z2W7 whole entry, looked up): as the sequence (Q7Z2W7 whole entry) above

[6] = target: Transient receptor potential cation channel subfamily V member 4 (Homo sapiens) (UniProt Q9HBA0); experiment: Agonist activity at recombinant human TRPV4 expressed in HEK293 cells assessed as increase in intracellular Ca2+ level pre-incubated for 5 mins by Fluo4-AM dye-based fluorescence assay; assay type: cell-based
[7] = target: T2, Transient receptor potential cation channel subfamily V member 3 (Homo sapiens) (UniProt Q8NET8); experiment: Agonist activity at recombinant human TRPV3 expressed in HEK293 cells assessed as increase in intracellular Ca2+ level pre-incubated for 5 mins by Fluo4-AM dye-based fluorescence assay; assay type: cell-based
T2 sequence (whole entry): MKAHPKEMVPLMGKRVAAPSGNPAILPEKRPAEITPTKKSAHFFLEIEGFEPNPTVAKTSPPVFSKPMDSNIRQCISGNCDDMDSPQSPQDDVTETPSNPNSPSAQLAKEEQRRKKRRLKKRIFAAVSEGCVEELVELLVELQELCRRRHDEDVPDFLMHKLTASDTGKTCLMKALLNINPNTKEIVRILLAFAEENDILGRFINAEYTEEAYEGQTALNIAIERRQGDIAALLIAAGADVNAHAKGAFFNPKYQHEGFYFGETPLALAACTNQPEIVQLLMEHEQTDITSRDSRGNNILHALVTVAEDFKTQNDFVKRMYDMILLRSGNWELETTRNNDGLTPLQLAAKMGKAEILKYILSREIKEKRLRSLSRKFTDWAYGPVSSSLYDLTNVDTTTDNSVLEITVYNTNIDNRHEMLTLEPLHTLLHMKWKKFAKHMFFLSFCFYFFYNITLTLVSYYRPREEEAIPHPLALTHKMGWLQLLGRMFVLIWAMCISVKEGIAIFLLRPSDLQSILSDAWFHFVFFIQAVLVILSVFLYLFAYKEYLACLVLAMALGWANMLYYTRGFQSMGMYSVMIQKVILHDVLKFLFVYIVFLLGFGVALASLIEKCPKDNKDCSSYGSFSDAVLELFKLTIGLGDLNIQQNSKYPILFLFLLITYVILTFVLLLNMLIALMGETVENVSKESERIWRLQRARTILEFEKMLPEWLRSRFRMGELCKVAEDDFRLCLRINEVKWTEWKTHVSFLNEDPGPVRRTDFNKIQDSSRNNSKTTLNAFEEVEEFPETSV

Homo sapiens [8] = organism: Homo sapiens; experiment: Induction of cooling effect in human at 0.02% measured after few mins after washing by simple mouth washing method; assay type: functional
[9] = system: Transient receptor potential cation channel subfamily M member 8 (Homo sapiens), Q7Z2W7 [Y745H]; experiment: Agonist activity at full length recombinant human TRPM8 Y745H mutant expressed in HEK293 cells at 0.3 to 3 uM by Fluo4-AM dye-based fluorescence assay; assay type: cell-based
Transient receptor potential cation channel subfamily M member 8 (Homo sapiens), Q7Z2W7 [Y745H], sequence (Q7Z2W7 whole entry Y745H): as the sequence (Q7Z2W7 whole entry) above, with Y745H counted along it

Transient receptor potential cation channel subfamily A member 1, sequence (O75762 whole entry): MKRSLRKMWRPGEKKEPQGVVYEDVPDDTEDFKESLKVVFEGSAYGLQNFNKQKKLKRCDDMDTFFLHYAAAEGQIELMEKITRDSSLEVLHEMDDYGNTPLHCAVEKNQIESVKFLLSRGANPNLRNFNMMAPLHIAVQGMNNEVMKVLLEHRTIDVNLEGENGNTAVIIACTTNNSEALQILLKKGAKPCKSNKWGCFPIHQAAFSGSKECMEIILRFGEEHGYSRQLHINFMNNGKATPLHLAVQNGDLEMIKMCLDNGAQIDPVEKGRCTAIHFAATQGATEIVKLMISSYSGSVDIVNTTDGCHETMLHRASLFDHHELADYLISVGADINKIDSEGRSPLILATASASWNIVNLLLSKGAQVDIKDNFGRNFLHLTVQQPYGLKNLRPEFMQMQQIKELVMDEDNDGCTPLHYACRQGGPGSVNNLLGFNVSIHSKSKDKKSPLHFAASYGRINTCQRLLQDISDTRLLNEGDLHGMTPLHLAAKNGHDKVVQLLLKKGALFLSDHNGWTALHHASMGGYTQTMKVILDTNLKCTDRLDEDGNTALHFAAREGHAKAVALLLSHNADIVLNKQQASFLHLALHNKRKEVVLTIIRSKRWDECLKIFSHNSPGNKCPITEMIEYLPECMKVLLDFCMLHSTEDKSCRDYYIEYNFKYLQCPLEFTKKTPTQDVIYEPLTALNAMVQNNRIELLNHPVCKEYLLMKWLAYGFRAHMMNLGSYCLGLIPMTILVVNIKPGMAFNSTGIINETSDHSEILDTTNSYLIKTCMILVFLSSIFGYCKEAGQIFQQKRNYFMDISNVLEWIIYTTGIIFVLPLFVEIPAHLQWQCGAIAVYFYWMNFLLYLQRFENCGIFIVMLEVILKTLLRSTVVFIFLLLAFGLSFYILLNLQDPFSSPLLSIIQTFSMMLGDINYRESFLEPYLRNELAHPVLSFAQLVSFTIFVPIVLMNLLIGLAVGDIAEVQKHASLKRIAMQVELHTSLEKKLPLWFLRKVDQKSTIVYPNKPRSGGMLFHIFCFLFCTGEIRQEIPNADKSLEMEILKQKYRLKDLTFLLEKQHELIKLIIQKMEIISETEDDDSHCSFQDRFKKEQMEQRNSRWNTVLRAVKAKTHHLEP
Transient receptor potential cation channel subfamily V member 4 (Homo sapiens), sequence (Q9HBA0 whole entry): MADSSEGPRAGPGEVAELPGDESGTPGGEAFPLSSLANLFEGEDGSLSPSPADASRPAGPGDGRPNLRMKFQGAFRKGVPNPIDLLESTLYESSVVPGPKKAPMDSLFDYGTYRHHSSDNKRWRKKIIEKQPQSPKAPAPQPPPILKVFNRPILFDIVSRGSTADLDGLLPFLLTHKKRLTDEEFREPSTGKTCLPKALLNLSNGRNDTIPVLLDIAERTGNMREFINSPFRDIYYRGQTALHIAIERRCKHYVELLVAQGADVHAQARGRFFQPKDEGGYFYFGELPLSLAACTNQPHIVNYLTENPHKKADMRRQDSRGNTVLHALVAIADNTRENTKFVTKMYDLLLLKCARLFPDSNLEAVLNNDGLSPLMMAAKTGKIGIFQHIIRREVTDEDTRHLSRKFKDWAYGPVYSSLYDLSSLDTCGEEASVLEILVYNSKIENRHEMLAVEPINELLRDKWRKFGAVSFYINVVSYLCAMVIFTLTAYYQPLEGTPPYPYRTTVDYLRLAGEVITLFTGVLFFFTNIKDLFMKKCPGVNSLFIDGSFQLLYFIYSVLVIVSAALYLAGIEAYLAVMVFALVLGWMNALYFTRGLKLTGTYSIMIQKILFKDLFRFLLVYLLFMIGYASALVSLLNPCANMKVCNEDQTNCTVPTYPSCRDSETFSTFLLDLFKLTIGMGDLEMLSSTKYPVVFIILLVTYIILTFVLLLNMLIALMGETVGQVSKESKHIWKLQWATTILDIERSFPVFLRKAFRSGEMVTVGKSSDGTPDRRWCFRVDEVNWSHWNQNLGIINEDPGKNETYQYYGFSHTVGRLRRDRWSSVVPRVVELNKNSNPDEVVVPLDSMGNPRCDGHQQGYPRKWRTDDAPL
Transient receptor potential cation channel subfamily V member 1 (Homo sapiens), sequence (Q8NER1 whole entry): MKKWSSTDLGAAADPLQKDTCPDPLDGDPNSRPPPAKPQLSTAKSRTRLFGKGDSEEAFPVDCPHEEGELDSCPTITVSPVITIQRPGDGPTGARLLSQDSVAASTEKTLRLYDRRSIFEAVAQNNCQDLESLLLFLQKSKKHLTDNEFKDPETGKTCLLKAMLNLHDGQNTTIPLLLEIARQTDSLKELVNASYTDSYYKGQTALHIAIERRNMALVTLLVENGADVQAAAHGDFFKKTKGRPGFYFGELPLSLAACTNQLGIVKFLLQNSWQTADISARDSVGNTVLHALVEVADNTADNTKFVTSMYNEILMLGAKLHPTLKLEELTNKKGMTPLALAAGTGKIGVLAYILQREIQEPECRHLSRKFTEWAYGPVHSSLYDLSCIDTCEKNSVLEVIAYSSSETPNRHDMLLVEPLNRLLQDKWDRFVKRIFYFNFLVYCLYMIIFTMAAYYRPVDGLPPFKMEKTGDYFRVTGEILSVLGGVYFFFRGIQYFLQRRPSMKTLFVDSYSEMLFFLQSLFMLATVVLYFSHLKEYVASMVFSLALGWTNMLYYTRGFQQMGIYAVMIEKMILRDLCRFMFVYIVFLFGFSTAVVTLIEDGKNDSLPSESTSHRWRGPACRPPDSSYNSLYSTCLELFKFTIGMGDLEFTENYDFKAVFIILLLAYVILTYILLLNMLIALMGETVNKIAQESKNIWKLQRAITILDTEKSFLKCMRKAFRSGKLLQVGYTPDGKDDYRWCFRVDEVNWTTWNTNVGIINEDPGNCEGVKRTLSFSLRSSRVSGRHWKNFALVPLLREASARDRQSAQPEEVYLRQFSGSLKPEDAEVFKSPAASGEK

SMILES | EC50 [1] | other results
C=CCc1cc(OC)c(OC(C)C(O[C@@H]2C[C@H](C)CC[C@H]2C(C)C)c2ccc(O)c(OC)c2)c(OC)c1 (some centres not stated) | 28 nM | 
C=CCc1cc(OC)c(OC(C)C(OC2CCCCC2)c2ccc(O)c(OC)c2)c(OC)c1 (configuration not stated) | 54 nM | 
C=CCc1cc(OC)c(OC(C)C(O)c2ccc(O)c(OC)c2)c(OC)c1 (racemic) | > 10000 nM | 
C=CCc1cc(OC)c(O[C@H](C)[C@@H](OC(C)=O)c2ccc(OC)c(OC)c2)c(OC)c1 | > 10000 nM | 
C=CCc1cc(OC)c(OC(C)C(OC(C)C)c2ccc(O)c(OC)c2)c(OC)c1 (configuration not stated) | 82 nM | 
CC(C)[C@@H]1CC[C@@H](C)C[C@H]1O [LEVOMENTHOL] |  | EC50 [2]: 96000 nM; Activity (Homo sapiens [3]): Active
C=CCc1cc(OC)c(OC(C)C(OCCCCCC)c2ccc(O)c(OC)c2)c(OC)c1 (configuration not stated) | 329 nM | 
C=CCc1cc(OC)c(O[C@@H](C)[C@H](OCC)c2ccc(O)c(OC)c2)c(OC)c1 | 1130 nM | 
C=CCc1cc(OC)c(OC(C)C(OCC)c2ccc(O)c(OC)c2)c(OC)c1 (mixture of isomers) | 332 nM | Activity [4]: inactive; EC50 [2]: 19100 nM; Activity [5]: Active; Activity [6]: inactive; Activity [7]: inactive; Activity (Homo sapiens [8]): Active; Activity [9]: Active
C=CCc1cc(OC)c(O[C@H](C)[C@H](OCC)c2ccc(O)c(OC)c2)c(OC)c1 | 583 nM | 
C=CCc1cc(OC)c(OC(C)C(OCCCCCCCCCC)c2ccc(O)c(OC)c2)c(OC)c1 (configuration not stated) | 66 nM | 
C=CCc1cc(OC)c(OC(C)C(O[C@H]2C[C@@H](C)CC[C@@H]2C(C)C)c2ccc(O)c(OC)c2)c(OC)c1 (some centres not stated) | 11 nM | 
C=CCc1cc(OC)c(OC(C)C(OCCOCCCC)c2ccc(O)c(OC)c2)c(OC)c1 (configuration not stated) | 153 nM | 
C=CCc1cc(OC)c(OC(C)C(OCC(C)C)c2ccc(O)c(OC)c2)c(OC)c1 (configuration not stated) | 138 nM | 
C=CCc1cc(OC)c(O[C@H](C)[C@@H](OC(C)=O)c2ccc(O)c(OC)c2)c(OC)c1 | > 10000 nM | 
C=CCc1cc(OC)c(OC(C)C(OC)c2ccc(O)c(OC)c2)c(OC)c1 (configuration not stated) | 3450 nM | 
C=CCc1cc(OC)c(O[C@H](C)[C@@H](OCC)c2ccc(O)c(OC)c2)c(OC)c1 | 1150 nM | 
C=CCc1cc(OC)c(O[C@H](C)[C@@H](O)c2ccc(OC)c(OC)c2)c(OC)c1 | > 10000 nM | 
C=CCc1cc(OC)c(OC(C)C(OCCCCCCCC)c2ccc(O)c(OC)c2)c(OC)c1 (configuration not stated) | 86 nM | 
